Source: patent publication EP4471049A1 (Zealand Pharma A/S, priority 2023, dated 2024)
Values belong to the molecule of their own block, whether it stands above or below them. *1 amine or outer side, *2 acyl side, *3 side chain or, on linkers, in order; H or OH if unused. Where a SMILES comes first, the peptide text is derived from it. Bridges are numbered along the chain shown (N, C = ends). Where no end group is shown, it is not given here. [ ]: non-standard residue; d: D form. The star is where a group is joined. 4‑Aminomethyl‑phenylacetyl = 4-aminomethyl-phenylacetyl unit, its amine closes the lactam, O=C(Cc1ccc(CN[*:1])cc1)[*:2]; dGly‑CF3 = O=C([C@H](N[*:1])C(F)(F)F)[*:2]; 2Nal = N[C@@H](Cc1ccc2ccccc2c1)C(=O)O; AEF = NCCOc1ccc(C[C@H](N)C(=O)O)cc1; X1 = O=C(Cc1ccc(CN[*:1])cc1)[*:2]; 3Pal = N[C@@H](Cc1cccnc1)C(=O)O; αMeL = CC(C)C[C@](C)(N)C(=O)O; Pyrrolidide = C1CCN(*)C1; Dab = NCC[C@H](N)C(=O)O

Tests used:
human IL-23R = biological target: T1, human IL-23R (Homo sapiens, UniProt Q5VWK5); assay: biochemical; settings: for Emax: read-out: % displacement (hIL-23R binding)
T1 sequence (Q5VWK5 22-629): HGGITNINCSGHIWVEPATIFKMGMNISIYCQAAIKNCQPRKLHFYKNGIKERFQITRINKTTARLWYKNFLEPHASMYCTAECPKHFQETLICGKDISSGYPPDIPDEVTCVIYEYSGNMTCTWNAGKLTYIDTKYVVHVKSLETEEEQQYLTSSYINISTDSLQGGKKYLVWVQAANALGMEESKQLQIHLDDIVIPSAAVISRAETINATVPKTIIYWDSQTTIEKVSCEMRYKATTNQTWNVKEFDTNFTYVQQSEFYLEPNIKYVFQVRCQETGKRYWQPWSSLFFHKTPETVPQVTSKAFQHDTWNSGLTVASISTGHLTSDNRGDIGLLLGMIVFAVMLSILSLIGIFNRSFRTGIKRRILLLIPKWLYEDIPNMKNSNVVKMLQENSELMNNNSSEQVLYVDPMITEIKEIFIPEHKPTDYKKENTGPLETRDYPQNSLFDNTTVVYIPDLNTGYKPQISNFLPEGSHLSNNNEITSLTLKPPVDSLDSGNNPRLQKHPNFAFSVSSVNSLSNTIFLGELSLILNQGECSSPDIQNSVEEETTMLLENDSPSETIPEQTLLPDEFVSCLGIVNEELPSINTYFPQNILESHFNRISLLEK
Text: The compound binding affinity for IL-23R was estimated by the ability of compounds to displace a fluorophore-labelled reference compound from the human IL-23R. The assay principle relies on Bioluminescence Resonance Energy Transfer (BRET) between a fluorophore-labelled reference compound binding to the IL-23R part of a fusion protein consisting of the IL-23R fused to a Nanoluc luciferase enzyme (Nanoluc). The Nanoluc is placed in the N-terminus in close proximity to the binding domain of the ligand. Upon close proximity between the fluorophore of the fluorophore-labelled compound and the Nanoluc of the fusion protein, bioluminescence energy generated from conversion of a Nanoluc substrate, is transferred to the fluorophore resulting in an increase in BRET. In presence of an unlabelled compound, the unlabelled compound displaces the fluorophore-labelled peptide from its binding site resulting in a decrease in BRET. The concentration for which half of the fluorophore-labelled peptide is displaced by the unlabelled compound depends on the affinity of the compound for the IL-23R, and is termed the IC50 concentration.
The plasmid also contained a gene to confer resistance for the antibiotic hygromycin. A cell line stably expressing the Nluc-IL23R fusion protein was generated by transfection of HEK293 cells with the expression plasmid and selected with hygromycin for 3 weeks in Growth medium consisting of DMEM w/ Glutamax-I containing, 10% V/V FBS, 1% V/V P/S, 1 mM Sodium Pyruvate, and 1X NEAA, and 0.3 mg/mL hygromycin. The remaining cells were propagated and considered a stable expressing Nluc-IL23R fusion protein pool clone.
Cells expressing the Nluc-IL23R fusion protein were expanded in Growth medium and membranes prepared by homogenization of a cell pellet from 18 T175 flasks (4 °C in subsequent steps). The cell pellet was lysed Tris 10 mM, 7.5, 1 mM EDTA and protease inhibitors (Complete, Roche) and homogenized using a 15 mL glass-dounce by 50 strokes. The homogenate was spun at spin @1500 rpm for 10 min, the supernatant transferred to SV-34 tubes and spun at 40000g for 20 min at 4 °C to pellet the crude membranes. The supernatant was then removed, the pellet resuspended in 5 mL buffer containing 50 mM HEPES pH 7.4, 5 mM EGTA, and 5 mM MgCl2, and homogenized. Aliquots of the resuspended and homogenized membranes containing the Nluc-IL23R fusion protein were stored at -80 °C until use.
The plate was sealed with light impermeable plate seals, and incubated on an orbital shaker 400 rpm for 2 hours at room temperature. To determine the BRET ratio, the plate seal was removed and 25 µL of the Nanoluc substrate (Promega N1572) diluted 1:500 was added to each well and incubated for 1-2 minutes on an orbital shaker at 400 rpm. […] The BRET ratio was calculated as the fluorescence from the TAMRA/nanoluc bioluminescence.
Compound potency (IC50) and maximal displacement (% displacement) were estimated by computer-aided curve fitting using a 4-parameter logistic (4PL) non-linear model. […]
In this application, the inventors provide the data as IC50 values.

[1] = biological target: T2, human IL-23R endogenously expressed on DB cells (human, UniProt Q5VWK5 24-629); assay: cell-based or functional assay
T2 sequence (looked up): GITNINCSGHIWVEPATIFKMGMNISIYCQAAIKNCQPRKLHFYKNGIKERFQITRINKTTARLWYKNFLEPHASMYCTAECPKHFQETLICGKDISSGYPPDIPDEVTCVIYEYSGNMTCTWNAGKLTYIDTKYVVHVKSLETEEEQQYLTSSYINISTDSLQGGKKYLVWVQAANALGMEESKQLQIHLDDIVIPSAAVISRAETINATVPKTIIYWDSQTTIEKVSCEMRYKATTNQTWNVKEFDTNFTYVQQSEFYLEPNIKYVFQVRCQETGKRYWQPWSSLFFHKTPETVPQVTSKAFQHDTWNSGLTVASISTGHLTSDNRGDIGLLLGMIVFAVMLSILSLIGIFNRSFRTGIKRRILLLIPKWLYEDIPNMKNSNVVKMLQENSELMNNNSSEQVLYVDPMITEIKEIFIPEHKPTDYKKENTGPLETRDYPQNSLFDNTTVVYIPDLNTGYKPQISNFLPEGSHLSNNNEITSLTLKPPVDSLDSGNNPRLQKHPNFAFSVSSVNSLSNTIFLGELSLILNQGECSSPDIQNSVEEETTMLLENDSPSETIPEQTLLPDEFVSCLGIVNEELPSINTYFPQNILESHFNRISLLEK

- % displacement (hIL-23R binding) (human IL-23R): 100%
Molecule: CNC(=O)[C@H](Cc1cccnc1)NC(=O)[C@H](CCN)NC(=O)[C@@H]1CCC(=O)NCc2ccc(cc2)CC(=O)N[C@@H](C)C(=O)N[C@H]2CCC(=O)NCC[C@H](NC(=O)[C@H](CCC(N)=O)NC(=O)[C@H](Cc3c[nH]c4ccccc34)NC2=O)C(=O)N[C@@H](Cc2ccc(OCCN)cc2)C(=O)N[C@@H](CC2CC2)C(=O)NC(C)(C)C(=O)N1 [Compound 42, [4-Aminomethyl-phenylacetyl](1c)*AE(2c)WQ[Dab](2c)[Y(2-aminoethoxy)][Cyclopropyl-Ala][Aib]E(1c)[Dab][3-(3-Pyridyl)-Ala]-[NHMe]]

- IC50 (human IL-23R): 0.27 nM
- Emax (human IL-23R): 100%
Molecule: CNC(=O)[C@H](Cc1cccnc1)NC(=O)[C@H](CCN)NC(=O)[C@@H]1CCC(=O)NCc2ccc(cc2)CC(=O)N[C@@H](C)C(=O)N[C@H]2CCC(=O)NCC[C@H](NC(=O)[C@H](CCC(N)=O)NC(=O)[C@H](Cc3c[nH]c4ccccc34)NC2=O)C(=O)N[C@@H](Cc2ccc(OCCN)cc2)C(=O)N[C@@H](Cc2c[nH]c3ncccc23)C(=O)NC(C)(C)C(=O)N1 [Compound 44, [4-Aminomethyl-phenylacetyl](1c)*AE(2c)WQ[Dab](2c)[Y(2-aminoethoxy)][7-AzaTrp][Aib]E(1c)[Dab][3-(3-Pyridyl)-Ala]-[NHMe]]

- % displacement (hIL-23R binding) (human IL-23R): 104%
- IC50 (human IL-23R): 4.2 nM
Molecule: CNC(=O)[C@H](Cc1cccnc1)NC(=O)[C@H](CCN)NC(=O)[C@@H]1CCC(=O)NCc2ccc(cc2)CC(=O)N[C@@H](C)C(=O)N[C@H]2CCC(=O)NCC[C@H](NC(=O)[C@H](CCC(N)=O)NC(=O)[C@H](Cc3c[nH]c4ccccc34)NC2=O)C(=O)N[C@@H](Cc2c[nH]c3ccccc23)CC(=O)N[C@@H](Cc2ccc3ccccc3c2)C(=O)NC(C)(C)C(=O)N1 [Compound 45, [4-Aminomethyl-phenylacetyl](1c)*AE(2c)WQ[Dab](2c)[beta-hTrp][2-Nal][Aib]E(1c)[Dab][3-(3-Pyridyl)-Ala]-[NHMe]]

- IC50 (human IL-23R): 57 nM
- Emax (human IL-23R): 101%
Molecule: CNC(=O)[C@H](Cc1cccnc1)NC(=O)[C@H](CCN)NC(=O)[C@@H]1CCC(=O)NCc2ccc(cc2)CC(=O)N[C@@H](C)C(=O)N[C@H]2CCC(=O)NCC[C@H](NC(=O)[C@H](CCC(N)=O)NC(=O)[C@H](Cc3c[nH]c4ccccc34)NC2=O)C(=O)N[C@@H](Cc2ccc(OCCN)cc2)C(=O)N[C@@H](Cc2c[nH]c3ccccc23)CC(=O)NC(C)(C)C(=O)N1 [Compound 46, [4-Aminomethyl-phenylacetyl](1c)*AE(2c)WQ[Dab](2c)[Y(2-aminoethoxy)][beta-hTrp][Aib]E(1c)[Dab][3-(3-Pyridyl)-Ala]-[NHMe]]

- Emax (human IL-23R): 103%
Molecule: CNC(=O)[C@H](Cc1cccnc1)NC(=O)[C@H](CCN)NC(=O)[C@@H]1CCC(=O)NCc2ccc(cc2)CC(=O)N[C@@H](C)C(=O)N[C@H]2CCC(=O)NCC[C@H](NC(=O)[C@H](CCC(N)=O)NC(=O)[C@H](Cc3c[nH]c4ccccc34)NC2=O)C(=O)N[C@@H](Cc2c[nH]c3c(F)cccc23)C(=O)N[C@@H](Cc2ccc3ccccc3c2)C(=O)NC(C)(C)C(=O)N1 [Compound 47, [4-Aminomethyl-phenylacetyl](1c)*AE(2c)WQ[Dab](2c)[7-F-Trp][2-Nal][Aib]E(1c)[Dab][3-(3-Pyridyl)-Ala]-[NHMe]]

- % displacement (hIL-23R binding) (human IL-23R): 105%
Molecule: CC(C)C[C@]1(C)NC(=O)[C@H](Cc2ccc3ccccc3c2)NC(=O)[C@H](Cc2ccc(OCCN)cc2)NC(=O)[C@@H]2CCNC(=O)CC[C@H](NC(=O)[C@H](CO)NC(=O)Cc3ccc(cc3)CNC(=O)CC[C@@H](C(=O)N[C@@H](CCN)C(N)=O)NC1=O)C(=O)N[C@@H](Cc1c[nH]c3ccccc13)C(=O)N[C@@H](CCC(=O)N1CCCC1)C(=O)N2 [Ref 146, [4-Aminomethyl-phenylacetyl](1c)*SE(2c)W[Q(pyrrolidin)][Dab](2c)[Y(2-aminoethoxy)][2-Nal][2-Me-Leu]E(1c)[Dab]-[NH2], reference compound] ([X1]SEWE(Pyrrolidide)[Dab][AEF][2Nal][αMeL]E[Dab]-NH2; lactam 3-6, N-10)

- hIL-23 (pSTAT3) antagonist % inhibition [1]: 100%
Molecule: H-DCSCWQCWWLCR-NH2 (bridge 4-7, 2-11; not fully specified (bridges)) [I3 (isomer 3)]

- hIL-23 (pSTAT3) antagonist % inhibition [1]: 98%
- hIL-23 (pSTAT3) antagonist IC50 [1]: 21 nM
B1: Ref 125 (peptide)
peptide: [4‑Aminomethyl‑phenylacetyl]SEWQ[Dab][AEF][2Nal][αMeL]E[Dab]-NH2
modifications: lactam (positions not given here); lactam 3-6; not fully specified (bridges); printed as [4-Aminomethyl-phenylacetyl](1c)*SE(2c)WQ[Dab](2c)[Y(2-aminoethoxy)][2-Nal][2-Me-Leu]E(1c)[Dab]-[NH2]

- hIL-23 (pSTAT3) antagonist % inhibition [1]: 97%
- hIL-23 (pSTAT3) antagonist IC50 [1]: 1.4 nM
Molecule: [4‑Aminomethyl‑phenylacetyl]SEWQ[Dab][AEF][2Nal][αMeL]E[dGly‑CF3][3Pal]-NH2 (lactam (positions not given here); lactam 3-6; not fully specified (bridges)) [Compound 16]
